Laboratory results as given in patent US20260265262A1, “CDK2 INHIBITORS AND METHODS OF USING THE SAME” (Cedilla Therapeutics, Inc., priority 2022, published 2026).

Key:
CDK2/Cyclin E1 = CDK2/Cyclin E1 (Homo sapiens, UniProt P24941); assay: ADP-Glo Luminescent Kinase Assay (CDK2/E1-37C); type: biochemical; conditions: 0.18 nM CDK2/Cyclin E1, 100 μM ATP, 1.5 μM Histone H1, 37° C., 60 min pre-incubation; read-out: ADPGLO (CDK2/E1-37C): IC50
Method: Inhibition of CDK2/Cyclin E1 activity by the presence of small molecules was evaluated using ADP-Glo Luminescent Kinase Assay (Promega). Activated CDK2/Cyclin E1 was incubated with its substrate Histone H1 (SignalChem H10-54N) in the kinase reaction buffer (100 μM ATP, 50 mM HEPES pH 7.5, 10 mM MgCl2, 1 mM EDTA, 2 mM DTT, 0.01% Brij35, 0.5 mg/mL BSA). Luminescence was recorded with an Envision plate reader (PerkinElmer).
Dose titrations of inhibitors in 100% DMSO were combined with 0.36 nM CDK2/Cyclin E1 in reaction buffer. The mixtures were incubated for 60 minutes at 37° C. before the addition of ATP and Histone H1 substrate to initiate the kinase reaction. The final conditions were 0.18 nM CDK2/Cyclin E1, 100 μM ATP, and 1.5 μM Histone H1. The reactions were incubated at 37° C. for 90 minutes before being stopped with the addition of ADP-Glo reagent. This mixture was incubated at room temperature for 60 minutes before Kinase Detection Solution is added to generate luminescence. The stopped reactions were analyzed on an Envision plate reader. The conversion ratios were normalized to yield % activity, plotted against compound concentration, and fit to a four-parameter equation to determine the IC50 for each compound.

Kuramochi cells = assay: IncuCyte cell proliferation assay; type: cell-based; conditions: Kuramochi cells labeled with mApple-H2B, cell count 0 to 72 hours, 20 μM top concentration; read-out: IncuCyte Kuramochi RB-WT: IC50
Method: IncuCyte® assay was used to measure the effect of disclosed compounds on cell proliferation. Fluorescent microscopy images of cells were taken immediately after compound treatment and 72 hours later. Image analysis software was used to obtain cell counts as a function of compound concentration. Kuramochi cells labeled with mApple-H2B were seeded on 384-well assay-ready plates. Plates were placed in an IncuCyte® (Sartorius) and scanned at 0 and 72 hours. IncuCyte® software was used to count the number of fluorescent nuclei in each well. The fold change in cell count from 0 to 72 hours in wells treated with increasing compounds concentrations (10 pts, 1/2 log dilution, 20 μM top concentration) was normalized to DMSO control wells. The normalized cell counts were fit with dose response curves and a […] was calculated.

SMILES	IC50 (CDK2/Cyclin E1)	IC50 (Kuramochi cells)
C[C@@H](OCC1CCCCC1)[C@H](NC(=O)[C@@H]1CN(C(=O)c2cnn(Cc3ccccc3)c2)CC12CN(C(=O)[C@H]1CC1(C)C)C2)C(=O)N1CCCC[C@H]1C(=O)O [Example I-36, (S)-1-(N—((S)-6-(1-benzyl-1H-pyrazole-4-carbonyl)-2-((S)-2,2-dimethylcyclopropane-1-carbonyl)-2,6-diazaspiro[3.4]octane-8-carbonyl)-O-(cyclohexylmethyl)-L-threonyl)piperidine-2-carboxylic acid]	< 0.5 µM	> 20 µM
CNC(=O)C(C)(C)CNC(=O)[C@@H](NC(=O)[C@@H]1CN(C(=O)c2cnn(Cc3ccccc3)c2)CC12CN(C(=O)[C@H]1CC1(C)C)C2)[C@@H](C)OCC1CCCCC1 [Example I-37, (S)-6-(1-benzyl-1H-pyrazole-4-carbonyl)-N-((2S,3R)-3-(cyclohexylmethoxy)-1-((2,2-dimethyl-3-(methylamino)-3-oxopropyl)amino)-1-oxobutan-2-yl)-2-((S)-2,2-dimethylcyclopropane-1-carbonyl)-2,6-diazaspiro[3.4]octane-8-carboxamide]	< 0.5 µM	5 to 20 µM
CNC(=O)[C@@H](NC(=O)[C@@H]1CN(C(=O)c2cncs2)CC12CN(CC1CCCO1)C2)[C@@H](C)OCC12CCC(CC1)OC2 (stereo partly shown) [Example I-48]	5 to 10 µM	> 20 µM
CC1(C)C[C@@H]1C(=O)N1CC2(CN(C(=O)c3cncs3)C[C@H]2C(=O)N2CCC[C@@H](N(CC(=O)NS(C)(=O)=O)CC3CCCCC3)C2)C1 [Example I-70, 2-((cyclohexylmethyl)((R)-1-((S)-2-((S)-2,2-dimethylcyclopropane-1-carbonyl)-6-(thiazole-5-carbonyl)-2,6-diazaspiro[3.4]octane-8-carbonyl)piperidin-3-yl)amino)-N-(methylsulfonyl)acetamide]	> 10 µM	> 20 µM
CC1(C)C[C@@H]1C(=O)N1CC2(CN(C(=O)c3cncs3)C[C@H]2C(=O)N2CCC[C@@H](N(CC(=O)O)CC3CCCCC3)C2)C1 [Example I-71]	> 10 µM	> 20 µM
CC1(C)C[C@@H]1C(=O)N1CC2(CN(C(=O)c3cncs3)C[C@H]2C(=O)N2CCC[C@H](N(CC(=O)NS(C)(=O)=O)CC3CCCCC3)C2)C1 [Example I-72, 2-((cyclohexylmethyl)((S)-1-((S)-2-((S)-2,2-dimethylcyclopropane-1-carbonyl)-6-(thiazole-5-carbonyl)-2,6-diazaspiro[3.4]octane-8-carbonyl)piperidin-3-yl)amino)-N-(methylsulfonyl)acetamide]	> 10 µM	> 20 µM
CCOC(=O)CN(CC1CCCCC1)[C@H]1CCCN(C(=O)[C@@H]2CN(C(=O)c3cncs3)CC23CN(C(=O)[C@H]2CC2(C)C)C3)C1 [Example I-74]	5 to 10 µM	> 20 µM
C[C@@H](OCC1CCOCC1)[C@H](NC(=O)[C@@H]1CN(C(=O)c2cnc(O)cn2)CC12CN(C(=O)C1(C(F)(F)F)CC1)C2)C(=O)N1CCC(C(F)(F)F)CC1 [Example I-78, (S)-6-(5-hydroxypyrazine-2-carbonyl)-N-((2S,3R)-1-oxo-3-((tetrahydro-2H-pyran-4-yl)methoxy)-1-(4-(trifluoromethyl)piperidin-1-yl)butan-2-yl)-2-(1-(trifluoromethyl)cyclopropane-1-carbonyl)-2,6-diazaspiro[3.4]octane-8-carboxamide]	< 0.5 µM	> 20 µM

Further lines, with some results ahead:

IC50 (CDK2/Cyclin E1)	SMILES	IC50 (Kuramochi cells)
< 0.5 µM	C[C@@H](OCC12CCC(CC1)OC2)[C@H](NC(=O)[C@@H]1CN(C(=O)c2cnn(Cc3ccccc3C(=O)O)c2)CC12CN(C(=O)C1(C(F)(F)F)CC1)C2)C(=O)N1CCC2(CCNCC2)CC1 [Example I-60, 2-((4-((S)-8-(((2S,3R)-3-((2-oxabicyclo[2.2.2]octan-4-yl)methoxy)-1-oxo-1-(3,9-diazaspiro[5.5]undecan-3-yl)butan-2-yl)carbamoyl)-2-(1-(trifluoromethyl)cyclopropane-1-carbonyl)-2,6-diazaspiro[3.4]octane-6-carbonyl)-1H-pyrazol-1-yl)methyl)benzoic acid]	0.5 to 5 µM
< 0.5 µM	C[C@@H](OCC12CCC(CC1)OC2)[C@H](NC(=O)[C@@H]1CN(C(=O)c2cnc(O)cn2)CC12CN(C(=O)C1(C(F)(F)F)CC1)C2)C(=O)N1CCC(c2ccc(C(F)(F)F)c(C(=O)O)c2)CC1 [Example I-63]	> 20 µM
0.5 to 5 µM	C[C@@H](OCC1(C(F)(F)F)CC1)[C@H](NC(=O)[C@@H]1CN(C(=O)c2cnn(Cc3ccc(C(F)(F)F)cc3)c2)CC12CN(C(=O)C1(C(F)(F)F)CC1)C2)C(=O)N1CCC(c2ccc(C(=O)O)cc2)CC1 [Example I-68, 4-(1-(N—((S)-6-(1-(4-(trifluoromethyl)benzyl)-1H-pyrazole-4-carbonyl)-2-(1-(trifluoromethyl)cyclopropane-1-carbonyl)-2,6-diazaspiro[3.4]octane-8-carbonyl)-O-((1-(trifluoromethyl)cyclopropyl)methyl)-L-threonyl)piperidin-4-yl)benzoic acid]	> 20 µM
< 0.5 µM	C[C@@H](OCC12CCC(CC1)OC2)[C@H](NC(=O)[C@@H]1CN(C(=O)c2cnn(Cc3ccccc3)c2)CC12CN(C(=O)C1(C(F)(F)F)CC1)C2)C(=O)N1CCC(c2nccs2)CC1 [Example I-69, (S)—N-((2S,3R)-3-(2-oxabicyclo[2.2.2]octan-4-ylmethoxy)-1-oxo-1-(4-(thiazol-2-yl)piperidin-1-yl)butan-2-yl)-6-(1-benzyl-1H-pyrazole-4-carbonyl)-2-(1-(trifluoromethyl)cyclopropanecarbonyl)-2,6-diazaspiro[3.4]octane-8-carboxamide]	0.5 to 5 µM
5 to 10 µM	C[C@@H](OCC12CCC(CC1)OC2)[C@H](NC(=O)[C@@H]1CN(C(=O)c2cnn(Cc3ccc(C(F)(F)F)cc3)c2)CC12CN(C(=O)C1(C(F)(F)F)CC1)C2)C(=O)NCCC(=O)NS(C)(=O)=O [Example I-73, (S)—N-((2S,3R)-3-((2-oxabicyclo[2.2.2]octan-4-yl)methoxy)-1-((3-(methylsulfonamido)-3-oxopropyl)amino)-1-oxobutan-2-yl)-6-(1-(4-(trifluoromethyl)benzyl)-1H-pyrazole-4-carbonyl)-2-(1-(trifluoromethyl)cyclopropane-1-carbonyl)-2,6-diazaspiro[3.4]octane-8-carboxamide]	> 20 µM
5 to 10 µM	C[C@@H](OCC12CCC(CC1)OC2)[C@H](NC(=O)[C@@H]1CN(C(=O)c2cnn(Cc3ccc(C(F)(F)F)cc3)c2)CC12CN(C(=O)C1(C(F)(F)F)CC1)C2)C(=O)NCCC(=O)O [Example I-75]	> 20 µM
< 0.5 µM	C[C@@H](OCC1CCOCC1)[C@H](NC(=O)[C@@H]1CN(C(=O)c2cnn(Cc3ccc(C(F)(F)F)cc3)c2)CC12CN(C(=O)C1(C(F)(F)F)CC1)C2)C(=O)N1CCC(c2nccs2)CC1 [Example I-79, (S)—N-((2S,3R)-1-oxo-3-((tetrahydro-2H-pyran-4-yl)methoxy)-1-(4-(thiazol-2-yl)piperidin-1-yl)butan-2-yl)-6-(1-(4-(trifluoromethyl)benzyl)-1H-pyrazole-4-carbonyl)-2-(1-(trifluoromethyl)cyclopropane-1-carbonyl)-2,6-diazaspiro[3.4]octane-8-carboxamide]	0.5 to 5 µM
0.5 to 5 µM	C[C@@H](OCC1(C(F)(F)F)CC1)[C@H](NC(=O)[C@@H]1CN(C(=O)c2cnn(Cc3ccc(C(F)(F)F)cc3)c2)CC12CN(C(=O)C1(C(F)(F)F)CC1)C2)C(=O)N1CCC(c2nccs2)CC1 [Example I-80, (S)—N-((2S,3R)-1-oxo-1-(4-(thiazol-2-yl)piperidin-1-yl)-3-((1-(trifluoromethyl)cyclopropyl)methoxy)butan-2-yl)-6-(1-(4-(trifluoromethyl)benzyl)-1H-pyrazole-4-carbonyl)-2-(1-(trifluoromethyl)cyclopropane-1-carbonyl)-2,6-diazaspiro[3.4]octane-8-carboxamide]	0.5 to 5 µM
< 0.5 µM	C[C@@H](OCC12CCC(CC1)OC2)[C@H](NC(=O)[C@@H]1CN(C(=O)c2cnn(Cc3ccc(C(F)(F)F)cc3)c2)CC12CN(C(=O)C1(C(F)(F)F)CC1)C2)C(=O)N1CCC(c2ccc(C(=O)O)c(O)c2)CC1 [Example I-81, 4-(1-(O-((2-Oxabicyclo[2.2.2]octan-4-yl)methyl)-N—((S)-6-(1-(4-(trifluoromethyl)benzyl)-1H-pyrazole-4-carbonyl)-2-(1-(trifluoromethyl)cyclopropane-1-carbonyl)-2,6-diazaspiro[3.4]octane-8-carbonyl)-L-threonyl)piperidin-4-yl)-2-hydroxybenzoic acid]	> 20 µM
